# Results from patent US20260356819A1, “OXOISOINDOLINYL-SUBSTITUTED […] DERIVATIVE AND USE THEREOF” (GLUETACS THERAPEUTICS (SHANGHAI) CO., LTD., priority 2023, published 2026).
# Experiments:
# Type in all cases: cell-based
# Conditions in all cases: compounds at 50 nM and 500 nM
# [1] = target: T1, GSPT1 (Homo sapiens, UniProt P15170+Q96SW2); test: Western blot degradation of GSPT1 in hPBMCs (24 h)
# T1 construct: The supernatant was aspirated as the extracted total cell protein; endogenous in cells; host or cells: human peripheral blood mononuclear cells (hPBMCs)
# Outline: (§1)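 hPBMCs (1×10^6 cells/mL) were treated with compound at 50 nM and 500 nM for 24 h, lysed in RIPA with protease inhibitors and analysed by SDS-PAGE/Western blot. Band grayscale, normalised to internal control, gave protein remaining (%); DC50 estimated versus DMSO bands.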
# [2] = target: T2, WEE1 (Homo sapiens, UniProt P30291+Q96SW2); test: Western blot degradation of WEE1 in hPBMCs (24 h)
# T2 construct: The supernatant was aspirated as the extracted total cell protein; endogenous in cells; host or cells: human peripheral blood mononuclear cells (hPBMCs)
# T2 sequence (P30291 whole entry): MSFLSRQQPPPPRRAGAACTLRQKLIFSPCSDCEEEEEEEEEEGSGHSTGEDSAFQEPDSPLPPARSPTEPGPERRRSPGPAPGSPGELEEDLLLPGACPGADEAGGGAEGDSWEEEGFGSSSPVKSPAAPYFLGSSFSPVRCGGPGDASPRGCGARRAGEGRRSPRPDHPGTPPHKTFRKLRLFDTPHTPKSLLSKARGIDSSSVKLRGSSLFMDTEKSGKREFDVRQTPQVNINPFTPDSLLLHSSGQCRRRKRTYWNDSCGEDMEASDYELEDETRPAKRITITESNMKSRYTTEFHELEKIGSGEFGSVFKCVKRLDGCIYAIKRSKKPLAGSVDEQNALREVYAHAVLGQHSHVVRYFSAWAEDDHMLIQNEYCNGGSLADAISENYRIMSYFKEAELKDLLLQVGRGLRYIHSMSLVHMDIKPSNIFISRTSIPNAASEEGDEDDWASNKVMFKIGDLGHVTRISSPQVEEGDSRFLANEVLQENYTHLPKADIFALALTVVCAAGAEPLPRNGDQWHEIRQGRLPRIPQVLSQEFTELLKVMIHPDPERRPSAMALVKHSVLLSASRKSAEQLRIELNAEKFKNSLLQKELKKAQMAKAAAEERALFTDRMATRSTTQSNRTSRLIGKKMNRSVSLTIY
# T2 sequence (Q96SW2 whole entry): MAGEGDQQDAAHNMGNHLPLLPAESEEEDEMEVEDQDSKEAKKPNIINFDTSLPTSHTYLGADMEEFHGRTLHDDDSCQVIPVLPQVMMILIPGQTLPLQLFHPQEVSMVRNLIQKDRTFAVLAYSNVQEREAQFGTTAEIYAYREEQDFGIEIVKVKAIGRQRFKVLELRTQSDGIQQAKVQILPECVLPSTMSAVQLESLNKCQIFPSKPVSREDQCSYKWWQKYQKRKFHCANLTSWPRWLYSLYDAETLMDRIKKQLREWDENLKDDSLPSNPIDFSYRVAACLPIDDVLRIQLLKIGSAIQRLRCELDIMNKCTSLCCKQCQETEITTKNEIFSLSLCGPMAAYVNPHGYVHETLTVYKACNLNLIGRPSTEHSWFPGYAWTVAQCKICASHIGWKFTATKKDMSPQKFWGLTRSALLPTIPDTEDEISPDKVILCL
# T2 sequence (Q16531 whole entry partner): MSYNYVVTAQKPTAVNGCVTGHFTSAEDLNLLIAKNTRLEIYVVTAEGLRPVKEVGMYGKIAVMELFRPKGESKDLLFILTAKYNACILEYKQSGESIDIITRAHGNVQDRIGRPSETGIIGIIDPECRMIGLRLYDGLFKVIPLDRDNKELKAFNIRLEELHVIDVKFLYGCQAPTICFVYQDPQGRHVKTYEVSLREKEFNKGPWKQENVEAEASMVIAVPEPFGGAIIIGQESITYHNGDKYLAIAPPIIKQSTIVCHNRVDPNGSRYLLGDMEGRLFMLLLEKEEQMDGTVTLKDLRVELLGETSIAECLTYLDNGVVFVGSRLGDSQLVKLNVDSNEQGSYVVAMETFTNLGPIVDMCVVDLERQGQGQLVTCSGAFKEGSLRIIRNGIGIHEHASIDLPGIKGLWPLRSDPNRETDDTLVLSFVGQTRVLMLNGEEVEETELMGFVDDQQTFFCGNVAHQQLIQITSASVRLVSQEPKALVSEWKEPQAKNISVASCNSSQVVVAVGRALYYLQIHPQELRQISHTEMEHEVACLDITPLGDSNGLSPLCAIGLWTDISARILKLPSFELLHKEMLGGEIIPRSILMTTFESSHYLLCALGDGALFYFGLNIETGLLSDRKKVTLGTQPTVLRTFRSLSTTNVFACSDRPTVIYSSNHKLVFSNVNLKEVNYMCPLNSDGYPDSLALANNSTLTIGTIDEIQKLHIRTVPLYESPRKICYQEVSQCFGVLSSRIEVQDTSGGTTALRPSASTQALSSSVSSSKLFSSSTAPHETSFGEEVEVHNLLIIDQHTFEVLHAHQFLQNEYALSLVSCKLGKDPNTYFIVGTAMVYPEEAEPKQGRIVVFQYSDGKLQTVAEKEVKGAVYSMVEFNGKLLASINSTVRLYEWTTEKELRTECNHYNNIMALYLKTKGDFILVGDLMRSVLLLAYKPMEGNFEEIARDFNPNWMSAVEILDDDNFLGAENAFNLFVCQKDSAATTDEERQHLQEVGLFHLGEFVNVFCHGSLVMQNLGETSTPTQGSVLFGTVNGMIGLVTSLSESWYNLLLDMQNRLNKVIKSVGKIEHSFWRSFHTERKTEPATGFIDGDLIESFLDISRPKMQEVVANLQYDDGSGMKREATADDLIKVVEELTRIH
# Outline: as §1
# [3] = target: T3, IKZF2 (Homo sapiens, UniProt Q96SW2+Q9UKS7); test: Western blot degradation of IKZF2 in hPBMCs (24 h)
# T3 construct: The supernatant was aspirated as the extracted total cell protein; endogenous in cells; host or cells: human peripheral blood mononuclear cells (hPBMCs)
# T3 sequence (Q9UKS7 whole entry): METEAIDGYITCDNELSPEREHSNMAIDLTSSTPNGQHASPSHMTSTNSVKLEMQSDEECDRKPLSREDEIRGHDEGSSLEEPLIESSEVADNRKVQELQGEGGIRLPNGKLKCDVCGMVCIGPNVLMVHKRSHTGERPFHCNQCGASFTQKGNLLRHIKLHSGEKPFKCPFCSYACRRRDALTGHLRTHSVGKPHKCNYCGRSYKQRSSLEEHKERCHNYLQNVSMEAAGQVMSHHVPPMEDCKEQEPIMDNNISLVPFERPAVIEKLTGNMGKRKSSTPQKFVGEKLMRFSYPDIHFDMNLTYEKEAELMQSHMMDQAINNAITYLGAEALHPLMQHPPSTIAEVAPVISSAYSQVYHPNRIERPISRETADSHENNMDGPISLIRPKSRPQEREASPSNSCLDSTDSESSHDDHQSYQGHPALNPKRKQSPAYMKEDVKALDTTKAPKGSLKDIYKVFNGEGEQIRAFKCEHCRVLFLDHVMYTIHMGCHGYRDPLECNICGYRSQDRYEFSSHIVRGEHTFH
# T3 sequence (Q96SW2 whole entry): as the sequence (Q96SW2 whole entry) above
# T3 sequence (Q16531 whole entry partner): as the sequence (Q16531 whole entry partner) above
# Outline: as §1
# [4] = target: T4, IKZF1 (Homo sapiens, UniProt Q13422+Q96SW2); test: Western blot degradation of IKZF1 in hPBMCs (24 h)
# T4 construct: The supernatant was aspirated as the extracted total cell protein; endogenous in cells; host or cells: human peripheral blood mononuclear cells (hPBMCs)
# T4 sequence (Q13422 whole entry): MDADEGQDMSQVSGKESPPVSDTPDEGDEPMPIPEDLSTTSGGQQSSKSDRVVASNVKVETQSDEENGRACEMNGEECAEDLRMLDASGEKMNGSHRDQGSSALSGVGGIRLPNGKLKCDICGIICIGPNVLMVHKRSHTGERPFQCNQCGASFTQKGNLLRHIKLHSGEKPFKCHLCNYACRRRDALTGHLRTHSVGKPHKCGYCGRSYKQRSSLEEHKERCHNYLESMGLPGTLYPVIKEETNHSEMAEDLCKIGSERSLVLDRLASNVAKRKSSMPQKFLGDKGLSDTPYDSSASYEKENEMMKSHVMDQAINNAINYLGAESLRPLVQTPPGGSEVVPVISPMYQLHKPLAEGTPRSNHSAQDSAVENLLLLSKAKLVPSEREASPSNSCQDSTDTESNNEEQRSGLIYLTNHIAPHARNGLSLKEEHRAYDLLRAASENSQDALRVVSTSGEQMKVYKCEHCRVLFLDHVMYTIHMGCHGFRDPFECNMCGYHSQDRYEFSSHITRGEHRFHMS
# T4 sequence (Q96SW2 whole entry): as the sequence (Q96SW2 whole entry) above
# T4 sequence (Q16531 whole entry partner): as the sequence (Q16531 whole entry partner) above
# Outline: as §1
# [5] = target: T5, CK1α (Homo sapiens, UniProt P48729+Q96SW2); test: Western blot degradation of CK1α in hPBMCs (24 h)
# T5 construct: The supernatant was aspirated as the extracted total cell protein; endogenous in cells; host or cells: human peripheral blood mononuclear cells (hPBMCs)
# T5 sequence (P48729 whole entry): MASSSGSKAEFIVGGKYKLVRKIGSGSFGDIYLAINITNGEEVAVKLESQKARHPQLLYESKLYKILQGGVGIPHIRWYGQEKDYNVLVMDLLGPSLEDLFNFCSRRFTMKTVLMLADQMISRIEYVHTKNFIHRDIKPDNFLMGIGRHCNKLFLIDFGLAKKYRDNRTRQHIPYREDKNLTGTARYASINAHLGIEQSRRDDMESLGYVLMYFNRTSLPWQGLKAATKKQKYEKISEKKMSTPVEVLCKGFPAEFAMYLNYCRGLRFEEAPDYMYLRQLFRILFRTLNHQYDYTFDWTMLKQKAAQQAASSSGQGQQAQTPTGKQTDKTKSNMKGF
# T5 sequence (Q96SW2 whole entry): as the sequence (Q96SW2 whole entry) above
# T5 sequence (Q16531 whole entry partner): as the sequence (Q16531 whole entry partner) above
# Outline: as §1
# [6] = target: T6, IKZF3 (Homo sapiens, UniProt Q96SW2+Q9UKT9); test: Western blot degradation of IKZF3 in hPBMCs (24 h)
# T6 construct: The supernatant was aspirated as the extracted total cell protein; endogenous in cells; host or cells: human peripheral blood mononuclear cells (hPBMCs)
# T6 sequence (Q9UKT9 whole entry): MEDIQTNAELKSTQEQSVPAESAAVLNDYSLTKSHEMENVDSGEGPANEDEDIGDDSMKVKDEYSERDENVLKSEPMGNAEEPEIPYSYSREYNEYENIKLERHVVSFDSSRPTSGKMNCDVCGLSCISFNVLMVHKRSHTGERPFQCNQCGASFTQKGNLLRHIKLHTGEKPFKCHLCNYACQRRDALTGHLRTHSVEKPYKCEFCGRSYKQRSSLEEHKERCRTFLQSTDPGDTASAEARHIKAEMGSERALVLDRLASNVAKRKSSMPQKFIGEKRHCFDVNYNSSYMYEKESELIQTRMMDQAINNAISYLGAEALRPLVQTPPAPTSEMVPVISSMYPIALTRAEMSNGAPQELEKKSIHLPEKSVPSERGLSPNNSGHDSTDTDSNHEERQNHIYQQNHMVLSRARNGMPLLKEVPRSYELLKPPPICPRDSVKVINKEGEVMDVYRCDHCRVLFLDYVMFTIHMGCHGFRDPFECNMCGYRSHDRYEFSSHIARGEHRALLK
# T6 sequence (Q96SW2 whole entry): as the sequence (Q96SW2 whole entry) above
# T6 sequence (Q16531 whole entry partner): as the sequence (Q16531 whole entry partner) above
# Outline: as §1
SMILES,GSPT1 substrate protein remaining % [1],WEE1 substrate protein remaining % [2],IKZF2 substrate protein remaining % [3],IKZF1 substrate protein remaining % [4],CK1α substrate protein remaining % [5],IKZF3 substrate protein remaining % [6]
"Cc1ccc(N2CCN(Cc3ccc4c(c3)C(=O)N(N3CCC(=O)NC3=O)C4=O)CC2)s1 [GT-05309, 2-(2,4-dioxotetrahydropyrimidin-1(2H)-yl)-5-((4-(5-methylthiophen-2-yl)piperazin-1-yl)methyl)isoindoline-1,3-dione]",A (0% ≤ substrate protein remaining % ≤80%),B (80%< substrate protein remaining % ≤100%),B (80%< substrate protein remaining % ≤100%),B (80%< substrate protein remaining % ≤100%),B (80%< substrate protein remaining % ≤100%),B (80%< substrate protein remaining % ≤100%)
"Cc1ccc(C2=CCN(Cc3ccc4c(c3)C(=O)N(N3CCC(=O)NC3=O)C4=O)CC2)s1 [GT-05310, 2-(2,4-dioxotetrahydropyrimidin-1(2H)-yl)-5-((4-(5-methylthiophen-2-yl)-3,6-dihydropyridin-1(2H)-yl)methyl)isoindoline-1,3-dione]",A (0% ≤ substrate protein remaining % ≤80%),B (80%< substrate protein remaining % ≤100%),B (80%< substrate protein remaining % ≤100%),B (80%< substrate protein remaining % ≤100%),B (80%< substrate protein remaining % ≤100%),B (80%< substrate protein remaining % ≤100%)
"O=C1CCN(N2C(=O)c3ccc(CN4CCN(c5ccsc5)CC4)cc3C2=O)C(=O)N1 [GT-05313, 2-(2,4-dioxotetrahydropyrimidin-1(2H)-yl)-5-((4-(thiophen-3-yl)piperazin-1-yl)methyl)isoindoline-1,3-dione]",A (0% ≤ substrate protein remaining % ≤80%),B (80%< substrate protein remaining % ≤100%),B (80%< substrate protein remaining % ≤100%),B (80%< substrate protein remaining % ≤100%),B (80%< substrate protein remaining % ≤100%),B (80%< substrate protein remaining % ≤100%)
"Cc1cscc1C1CCN(Cc2ccc3c(c2)C(=O)N(N2CCC(=O)NC2=O)C3=O)CC1 [GT-05314, 2-(2,4-dioxotetrahydropyrimidin-1(2H)-yl)-5-((4-(4-methylthiophen-3-yl)piperidin-1-yl)methyl)isoindoline-1,3-dione]",A (0% ≤ substrate protein remaining % ≤80%),B (80%< substrate protein remaining % ≤100%),B (80%< substrate protein remaining % ≤100%),B (80%< substrate protein remaining % ≤100%),B (80%< substrate protein remaining % ≤100%),B (80%< substrate protein remaining % ≤100%)
"O=C1CCN(N2C(=O)c3ccc(CN4CCC(c5ccco5)CC4)cc3C2=O)C(=O)N1 [GT-05315, 2-(2,4-dioxotetrahydropyrimidin-1(2H)-yl)-5-((4-(furan-2-yl)piperidin-1-yl)methyl)isoindoline-1,3-dione]",A (0% ≤ substrate protein remaining % ≤80%),B (80%< substrate protein remaining % ≤100%),B (80%< substrate protein remaining % ≤100%),B (80%< substrate protein remaining % ≤100%),B (80%< substrate protein remaining % ≤100%),B (80%< substrate protein remaining % ≤100%)
"Cc1cscc1C1=CCN(Cc2ccc3c(c2)C(=O)N(N2CCC(=O)NC2=O)C3=O)CC1 [GT-05316, 2-(2,4-dioxotetrahydropyrimidin-1(2H)-yl)-5-((4-(4-methylthiophen-3-yl)-3,6-dihydropyridin-1(2H)-yl)methyl)isoindoline-1,3-dione]",A (0% ≤ substrate protein remaining % ≤80%),B (80%< substrate protein remaining % ≤100%),B (80%< substrate protein remaining % ≤100%),B (80%< substrate protein remaining % ≤100%),B (80%< substrate protein remaining % ≤100%),B (80%< substrate protein remaining % ≤100%)
"O=C1CCN(N2C(=O)c3ccc(CN4CC=C(c5ccco5)CC4)cc3C2=O)C(=O)N1 [GT-05317, 2-(2,4-dioxotetrahydropyrimidin-1(2H)-yl)-5-((4-(furan-2-yl)-3,6-dihydropyridin-1(2H)-yl)methyl)isoindoline-1,3-dione]",A (0% ≤ substrate protein remaining % ≤80%),B (80%< substrate protein remaining % ≤100%),B (80%< substrate protein remaining % ≤100%),B (80%< substrate protein remaining % ≤100%),B (80%< substrate protein remaining % ≤100%),B (80%< substrate protein remaining % ≤100%)
"O=C1CCN(N2C(=O)c3ccc(CN4CCN(c5ccc(Cl)cn5)CC4)cc3C2=O)C(=O)N1 [GT-05350, 5-((4-(5-chloropyridin-2-yl)piperazin-1-yl)methyl)-2-(2,4-dioxotetrahydropyrimidin-1(2H)-yl)isoindoline-1,3-dione]",A (0% ≤ substrate protein remaining % ≤80%),B (80%< substrate protein remaining % ≤100%),B (80%< substrate protein remaining % ≤100%),B (80%< substrate protein remaining % ≤100%),B (80%< substrate protein remaining % ≤100%),B (80%< substrate protein remaining % ≤100%)
"Cc1cccc(N2CCN(Cc3ccc4c(c3)C(=O)N(N3CCC(=O)NC3=O)C4=O)CC2)n1 [GT-05352, 2-(2,4-dioxotetrahydropyrimidin-1(2H)-yl)-5-((4-(6-methylpyridin-2-yl)piperazin-1-yl)methyl)isoindoline-1,3-dione]",A (0% ≤ substrate protein remaining % ≤80%),B (80%< substrate protein remaining % ≤100%),A (0% ≤ substrate protein remaining % ≤80%),B (80%< substrate protein remaining % ≤100%),B (80%< substrate protein remaining % ≤100%),B (80%< substrate protein remaining % ≤100%)
"O=C1CCN(N2Cc3cc(CN4CCN(c5nccc(Cl)c5F)CC4)ccc3C2=O)C(=O)N1 [GT-05358, 1-(5-((4-(4-chloro-3-fluoropyridin-2-yl)piperazin-1-yl)methyl)-1-oxoisoindolin-2-yl)dihydropyrimidine-2,4(1H,3H)-dione]",A (0% ≤ substrate protein remaining % ≤80%),B (80%< substrate protein remaining % ≤100%),B (80%< substrate protein remaining % ≤100%),B (80%< substrate protein remaining % ≤100%),B (80%< substrate protein remaining % ≤100%),B (80%< substrate protein remaining % ≤100%)
"O=C1CCN(N2Cc3cc(CN4CCN(c5ccc(Cl)nc5)CC4)ccc3C2=O)C(=O)N1 [GT-05435, 1-(5-((4-(6-chloropyridin-3-yl)piperazin-1-yl)methyl)-1-oxoisoindolin-2-yl)dihydropyrimidine-2,4(1H,3H)-dione]",A (0% ≤ substrate protein remaining % ≤80%),A (0% ≤ substrate protein remaining % ≤80%),B (80%< substrate protein remaining % ≤100%),B (80%< substrate protein remaining % ≤100%),B (80%< substrate protein remaining % ≤100%),B (80%< substrate protein remaining % ≤100%)
"O=C1CCN(N2Cc3cc(CN4CCN(c5cncc(Cl)c5Cl)CC4)ccc3C2=O)C(=O)N1 [GT-05436, 1-(5-((4-(4,5-dichloropyridin-3-yl)piperazin-1-yl)methyl)-1-oxoisoindolin-2-yl)dihydropyrimidine-2,4(1H,3H)-dione]",A (0% ≤ substrate protein remaining % ≤80%),A (0% ≤ substrate protein remaining % ≤80%),B (80%< substrate protein remaining % ≤100%),B (80%< substrate protein remaining % ≤100%),B (80%< substrate protein remaining % ≤100%),B (80%< substrate protein remaining % ≤100%)
"O=C1CCN(N2Cc3cc(CN4CCN(c5ccncc5)CC4)ccc3C2=O)C(=O)N1 [GT-05437, 1-(1-oxo-5-((4-(pyridin-4-yl)piperazin-1-yl)methyl)isoindolin-2-yl)dihydropyrimidine-2,4(1H,3H)-dione]",A (0% ≤ substrate protein remaining % ≤80%),B (80%< substrate protein remaining % ≤100%),B (80%< substrate protein remaining % ≤100%),B (80%< substrate protein remaining % ≤100%),B (80%< substrate protein remaining % ≤100%),B (80%< substrate protein remaining % ≤100%)
